# How the values were obtained:
# Type in all cases: in vivo, C57BL/6 mice
# [1] = system: BLM-induced pulmonary fibrosis model mice; experiment: Histopathological analysis (Masson's trichrome staining, Ashcroft score) in BLM-induced pulmonary fibrosis model mice; conditions: for Ashcroft score: sacrifice day 21, mean ± SD
# Experimental: On day 0, twenty mice were intratracheally administered BLM (Nippon Kayaku, Japan) in 0.9% saline in a volume of 50 μL per animal using a Microsprayer® (Penn-Century, USA). MN-001 and vehicle were administered by oral route in a volume of 10 mL/kg. MN-001 was administered at doses of 30, 100, 300 mg/kg once daily. Right lung tissues prefixed in 10% neutral buffered formalin were embedded in paraffin and sectioned at […] sections were stained with Masson's trichrome staining Kit (Sigma, USA) according to the manufacturer's instructions. The degree of pulmonary fibrosis was evaluated using the Ashcroft score (Ashcroft, T., et al., J Clin Pathol, 1988; 41:467-70) for the quantitative histological analysis.
# [2] = system: BLM-induced pulmonary fibrosis model mice; experiment: Survival analysis in BLM-induced pulmonary fibrosis model mice
# Experimental: (§1) On day 0, twenty mice were intratracheally administered BLM (Nippon Kayaku, Japan) in 0.9% saline in a volume of 50 μL per animal using a Microsprayer® (Penn-Century, USA).
# (§2) MN-001 and vehicle were administered by oral route in a volume of 10 mL/kg.
# (§3) MN-001 was administered at doses of 30, 100, 300 mg/kg once daily.
# (§4) The viability, clinical signs and behavior were monitored every day. Body weight was recorded daily after the day of starting the BLM administration (day 0). Animals were sacrificed by exsanguination through the abdominal aorta under pentobarbital sodium anesthesia (Kyoritsu, Japan).
# [3] = system: BLM-induced pulmonary fibrosis model mice; experiment: CT evaluation of lung density in BLM-induced pulmonary fibrosis model mice; conditions: for Lung density on day 0 / Lung density on day 7: CT, mean ± SD; for Lung density on day 0: day 0 (before BLM administration and before treatment); for Lung density on day 7: day 7 after BLM (start of treatment)
# Experimental: On day 0, twenty mice were intratracheally administered BLM (Nippon Kayaku, Japan) in 0.9% saline in a volume of 50 μL per animal using a Microsprayer® (Penn-Century, USA). MN-001 and vehicle were administered by oral route in a volume of 10 mL/kg. MN-001 was administered at doses of 30, 100, 300 mg/kg once daily. […] The mice were mounted on a holder and placed in the X-ray CT system (LCT-200, Aloka, Japan) under pentobarbital sodium (Kyoritu Seiyaku, Japan) anesthesia. The images were converted into DICOM format and analyzed with Onis Viewer (DigitalCore, Japan). Two section slides (upper: forth dorsal vertebra, lower: seventh dorsal vertebra) were determined from each scan data set, and eight regions of interest (ROI) were defined in the following areas: the right upper anterior and posterior regions, the left upper anterior and posterior region. The means of the intensity of the eight ROIs were defined as an individual's level of lung density.
# [4] = system: BLM-induced pulmonary fibrosis model mice; experiment: Lung hydroxyproline content in BLM-induced pulmonary fibrosis model mice; conditions: for Lung hydroxyproline contents / Lung Hyp (lung hydroxyproline content): sacrifice day 21, mean ± SD
# Experimental: On day 0, twenty mice were intratracheally administered BLM (Nippon Kayaku, Japan) in 0.9% saline in a volume of 50 μL per animal using a Microsprayer® (Penn-Century, USA). MN-001 and vehicle were administered by oral route in a volume of 10 mL/kg. MN-001 was administered at doses of 30, 100, 300 mg/kg once daily. To quantify lung hydroxyproline content, frozen left lung samples (15-25 mg) were processed by an alkaline-acid hydrolysis method as follows. Lung samples were acid-hydrolyzed with 400 μL of 6N HCl at 121° C. for 20 minutes, and neutralized with 400 μL of 4N NaOH containing 10 mg/mL activated carbon. AC buffer (2.2M acetic acid/0.48M citric acid, 400 μL) was added to the samples, followed by centrifugation to collect the supernatant. A standard curve of hydroxyproline was constructed with serial dilutions of trans-4-hydroxy-L-proline (Sigma-Aldrich, USA) starting at 16 μg/mL. The prepared samples and standards (each 400 μL) were mixed with 400 μL chloramine T solution (Wako Pure Chemical Industries Japan) and incubated for 25 minutes at room temperature. The samples were then mixed with Ehrlich's solution (400 μL) and heated at 65° C. for 20 minutes to develop the color. After samples were cooled on ice and centrifuged to remove precipitates, the optical density of each supernatant was measured at 560 nm. The concentrations of hydroxyproline were calculated from the hydroxyproline standard curve. Lung hydroxyproline levels were expressed as […].
# [5] = Body weight changes in BLM-induced pulmonary fibrosis model mice; conditions: for Body weight changes (%) on the day of sacrifice: percentage of baseline (day 0), mean ± SD
# Experimental: Seven-week-old female C57BL/6 mice (17-21 g) were obtained from Japan SLC (Japan). Animals were housed and fed with normal diet (CE-2; CLEA Japan) under conventional conditions. All animals used in this study were cared following appropriate guidelines.
# as §1, §2, §3, §4
# Body weight was expressed as percentage body weight change from baseline (day 0).
# [6] = system: BLM-induced pulmonary fibrosis model mice; experiment: Cellular analysis of BALF (total cell number) in BLM-induced pulmonary fibrosis model mice; conditions: for Total number of cells in BALF: sacrifice day 21, mean ± SD
# Experimental: On day 0, twenty mice were intratracheally administered BLM (Nippon Kayaku, Japan) in 0.9% saline in a volume of 50 μL per animal using a Microsprayer® (Penn-Century, USA). MN-001 and vehicle were administered by oral route in a volume of 10 mL/kg. MN-001 was administered at doses of 30, 100, 300 mg/kg once daily. BALF samples were collected by flushing the lung via the trachea with sterile PBS three times (0.8 mL each). The first lavage was kept separate from the other two. BALF was centrifuged at 1,000×g for 3 minutes at 4° C. and the supernatant was collected and stored at −80° C. until use. The cell pellet from the first fraction and the remaining fractions of lavage fluid were pooled. Total cell number of BALF was counted with a hemocytometer.
# [7] = system: BLM-induced pulmonary fibrosis model mice; experiment: CT evaluation of lung density in BLM-induced pulmonary fibrosis model mice; conditions: for Lung density on day 21: CT, mean ± SD
# [8] = system: BLM-induced pulmonary fibrosis in mice; experiment: Bleomycin (BLM)-induced pulmonary fibrosis in mice, therapeutic regimen, overall conclusion; conditions: administered after detecting fibrosis (therapeutic regimen, from day 7 after BLM)
# Experimental: As evidenced by Ashcroft score and lung hydroxyproline content, pulmonary fibrosis was established in all BLM-treated mice. […] In the present study, MN-001 was administered at day 7 after BLM administration. Since BLM induced fibrogenic reaction already at day 7, the treatment schedule in the present study is considered to be a “therapeutic regimen”. […] On day 0, twenty mice were intratracheally administered BLM (Nippon Kayaku, Japan) in 0.9% saline in a volume of 50 μL per animal using a Microsprayer® (Penn-Century, USA). MN-001 and vehicle were administered by oral route in a volume of 10 mL/kg. MN-001 was administered at doses of 30, 100, 300 mg/kg once daily.
# [9] = MN-001 30 mg/kg oral once daily day 7 to 20, n = 8, 30 mg/kg
# [10] = MN-001 100 mg/kg oral once daily day 7 to 20, n = 10, 100 mg/kg
# [11] = MN-001 300 mg/kg oral once daily day 7 to 20, n = 10, 300 mg/kg
# [12] = MN-001 treatment, all doses, administered from day 7 after BLM
# [13] = MN-001 30 mg/kg oral once daily day 7 to 20
# [14] = MN-001 30 mg/kg oral once daily day 7 to 20, n = 8
# [15] = MN-001 100 mg/kg oral once daily day 7 to 20
# [16] = MN-001 100 mg/kg oral once daily day 7 to 20, n = 10
# [17] = MN-001 300 mg/kg oral once daily day 7 to 20
# [18] = MN-001 300 mg/kg oral once daily day 7 to 20, n = 10
compound,measurement,setting,value
CCCc1c(SCCCOc2ccc(C(C)=O)c(OCCCC(=O)O)c2CCC)ccc(C(C)=O)c1O [MN-001],Ashcroft score,[1]; [9],2.0±0.7
same,Ashcroft score compared to the Vehicle group,[1]; MN-001 30 mg/kg treatment,tended to decrease
same,Ashcroft score,[1]; [10],2.2±0.8
same,Ashcroft score compared to the Vehicle group,[1]; MN-001 100 mg/kg treatment,tended to decrease
same,Ashcroft score compared to the Vehicle group,[1]; MN-001 300 mg/kg group,significantly decreased
same,Ashcroft score,[1]; [11],1.8±0.6
same,Ashcroft score compared to the Vehicle group at day 21 (summary),[1]; [12],significant reduction or a decreasing trend
same,Mice died before reaching day 21,"[2]; MN-001 30 mg/kg group, during the treatment period (Vehicle: two out of 10)",Two out of 10
same,Survival rate compared to the Vehicle group,"[2]; MN-001 treated groups (30, 100, 300 mg/kg)",no significant differences
same,Lung density on day 0,"[3]; MN-001 30 mg/kg group, n = 8",−445 ± 17
same,Lung density on day 7,"[3]; MN-001 30 mg/kg group, n = 8",−375 ± 77
same,Lung density on day 0,"[3]; MN-001 100 mg/kg group, n = 10",−444 ± 18
same,Lung density on day 7,"[3]; MN-001 100 mg/kg group, n = 10",−343 ± 84
same,Lung density on day 0,"[3]; MN-001 300 mg/kg group, n = 10",−423 ± 19
same,Lung density on day 7,"[3]; MN-001 300 mg/kg group, n = 10",−415 ± 83
same,"Lung density, visually observed in the graphs (FIGS. 1.1 to 1.3)",[3]; MN-001 treated groups vs Vehicle,downward trend
same,Lung hydroxyproline contents compared to the Vehicle group,[4]; MN-001 30 mg/kg group,significantly decreased
same,Lung hydroxyproline contents,[4]; [13],49.8±7.9 μg/left lung
same,Lung Hyp (lung hydroxyproline content),[4]; [14],49.8 ± 7.9 µg/left lung
same,Lung hydroxyproline contents compared to the Vehicle group,[4]; MN-001 100 mg/kg group,significantly decreased
same,Lung hydroxyproline contents,[4]; [15],56.1±10.1 μg/left lung
same,Lung Hyp (lung hydroxyproline content),[4]; [16],56.1 ± 10.1 µg/left lung
same,Lung hydroxyproline contents,[4]; [17],56.4±12.7 μg/left lung
same,Lung Hyp (lung hydroxyproline content),[4]; [18],56.4 ± 12.7 µg/left lung
same,Lung hydroxyproline content compared to the Vehicle group,[4]; MN-001 300 mg/kg treatment,tended to decrease
same,Lung hydroxyproline content compared to the Vehicle group at day 21 (summary),[4]; [12],significant reduction or a decreasing trend
same,Body weight changes (%) on the day of sacrifice,[5]; [9],104.8±3.7%
same,Body weight changes (%) on the day of sacrifice,[5]; [10],100.9±10.6%
same,Body weight changes (%) on the day of sacrifice,[5]; [11],104.2±4.1%
same,Mean body weight loss on the day of sacrifice compared to the Vehicle group,"[5]; MN-001 treated groups (30, 100, 300 mg/kg), Bonferroni multiple comparison test",no significant differences
same,Total number of cells in BALF,[6]; [13],65.1±26.1 ×10^5 cells
same,Total number of cells in BALF,[6]; [15],124.4±127.3 ×10^4 cells
same,Total number of cells in BALF,[6]; [17],76.0±35.0 ×10^5 cells
same,Total number of cells in BALF compared to the Vehicle group,[6]; any MN-001 treated groups,no significant differences
same,Lung density on day 21,[7]; [14],−186 ± 84
same,Lung density on day 21,[7]; [16],−200 ± 122
same,Lung density on day 21,[7]; [18],−260 ± 107
same,"Lung density on day 0, 7 and 21 compared to the Vehicle group","[7]; any of the MN-001 treated groups, statistical comparison",no significant differences
same,Anti-fibrogenic effect,[8],significant anti-fibrogenic effect
